From patent publication US7183260B2, “C-terminal modified oxamyl dipeptides as inhibitors of the ICE/ced-3 family of cysteine proteases” (Idun Pharmaceuticals, Inc., priority 1998, dated 2007)
pKi: −log10 of the molar value.

Key:
Assay type in all cases: biochemical
Settings in all cases: continuous assay 60 min, reaction initiated by adding enzyme to substrate-inhibitor mixture
MCH-2 = biological target: T1, MCH-2 (Homo sapiens, UniProt P55212); assay: Dissociation constant Ki and irreversible rate constant k3 for irreversible inhibitors (Mch2)
T1 sequence (P55212 24-179 limits assumed): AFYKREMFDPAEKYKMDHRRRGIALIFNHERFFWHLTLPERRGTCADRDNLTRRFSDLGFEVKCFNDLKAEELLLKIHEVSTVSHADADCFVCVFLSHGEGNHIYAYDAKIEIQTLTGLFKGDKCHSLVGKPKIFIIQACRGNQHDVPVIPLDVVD
T1 sequence (P55212 194-293 limits assumed): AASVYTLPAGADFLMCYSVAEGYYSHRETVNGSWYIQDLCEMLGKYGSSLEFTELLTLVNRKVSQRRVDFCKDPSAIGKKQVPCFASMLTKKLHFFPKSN

CPP32 = biological target: T2, CPP32 (Homo sapiens, UniProt P42574); assay: Dissociation constant Ki and irreversible rate constant k3 for irreversible inhibitors (CPP32)
T2 sequence (P42574 29-175 limits assumed): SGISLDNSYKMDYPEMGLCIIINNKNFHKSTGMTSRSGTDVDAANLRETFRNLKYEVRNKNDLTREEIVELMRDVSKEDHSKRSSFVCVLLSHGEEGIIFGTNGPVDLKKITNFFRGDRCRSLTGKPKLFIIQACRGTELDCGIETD
T2 sequence (P42574 176-277 limits assumed): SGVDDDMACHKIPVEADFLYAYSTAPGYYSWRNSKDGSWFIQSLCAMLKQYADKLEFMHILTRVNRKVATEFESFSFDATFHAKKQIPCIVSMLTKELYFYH

MCH-5 = MCH-5 (Homo sapiens, UniProt Q14790); assay: Dissociation constant Ki and irreversible rate constant k3 for irreversible inhibitors (Mch5)
Chain of MCH-5 (Q14790 217-374 limits assumed, species assumed): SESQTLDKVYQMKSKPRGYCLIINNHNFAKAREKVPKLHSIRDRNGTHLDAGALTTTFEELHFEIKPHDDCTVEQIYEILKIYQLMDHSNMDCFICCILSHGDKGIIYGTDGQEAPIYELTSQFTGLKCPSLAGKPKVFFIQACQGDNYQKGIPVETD
Chain of MCH-5 (Q14790 385-479 limits assumed, species assumed): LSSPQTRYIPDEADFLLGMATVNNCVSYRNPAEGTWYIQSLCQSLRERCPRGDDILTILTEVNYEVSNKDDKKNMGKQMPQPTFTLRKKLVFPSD

mICE = biological target: T3, mICE (Mus musculus, UniProt P29452); assay: Dissociation constant Ki and irreversible rate constant k3 for irreversible inhibitors (ICE)
T3 sequence (P29452 123-296 limits assumed): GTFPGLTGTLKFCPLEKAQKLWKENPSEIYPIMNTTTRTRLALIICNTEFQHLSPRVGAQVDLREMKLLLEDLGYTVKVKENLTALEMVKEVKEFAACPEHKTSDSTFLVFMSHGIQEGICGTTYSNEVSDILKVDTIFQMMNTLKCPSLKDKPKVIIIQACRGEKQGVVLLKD
T3 sequence (P29452 315-402 limits assumed): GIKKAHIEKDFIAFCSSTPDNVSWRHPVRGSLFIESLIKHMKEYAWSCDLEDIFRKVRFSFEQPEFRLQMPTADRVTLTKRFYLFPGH

SMILES: C[C@H](NC(=O)C(=O)Nc1ccccc1C(C)(C)C)C(=O)N[C@@H](CC(=O)O)C(=O)COP(=O)(c1ccccc1)c1ccccc1 [Example 47]
- pKi (MCH-2): 7.96
- MCH-2 k3/Ki (MCH-2): 484,000 moles^−1 seconds^−1
- CPP32 k3/Ki (CPP32): 395,000 moles^−1 seconds^−1
- pKi (CPP32): 7.62
- pKi (MCH-5): 8.06
- MCH-5 k3/Ki (MCH-5): 589,000 moles^−1 seconds^−1
- pKi (mICE): 7.85
- mICE k3/Ki (mICE): 625,000 moles^−1 seconds^−1

SMILES: C[C@H](NC(=O)C(=O)Nc1cc(C(C)(C)C)ccc1C(C)(C)C)C(=O)N[C@@H](CC(=O)O)C(=O)COP(=O)(c1ccccc1)c1ccccc1 [Example 59]
- pKi (MCH-2): 7.82
- MCH-2 k3/Ki (MCH-2): 308,000 moles^−1 seconds^−1
- CPP32 k3/Ki (CPP32): 104,000 moles^−1 seconds^−1
- pKi (CPP32): 7.15
- pKi (MCH-5): 8.26
- MCH-5 k3/Ki (MCH-5): 1,340,000 moles^−1 seconds^−1
- pKi (mICE): 7.35
- mICE k3/Ki (mICE): 211,000 moles^−1 seconds^−1

SMILES: CC(C)[C@H](NC(=O)C(=O)Nc1cc(C(C)(C)C)ccc1C(C)(C)C)C(=O)N[C@@H](CC(=O)O)C(=O)COc1c(F)c(F)cc(F)c1F [Example 109]
- pKi (MCH-2): 6.63
- MCH-2 k3/Ki (MCH-2): 8,230 moles^−1 seconds^−1
- CPP32 k3/Ki (CPP32): 70,600 moles^−1 seconds^−1
- pKi (CPP32): 6.71
- pKi (MCH-5): 7.47
- MCH-5 k3/Ki (MCH-5): 51,300 moles^−1 seconds^−1
- pKi (mICE): 7.60
- mICE k3/Ki (mICE): 767,000 moles^−1 seconds^−1

SMILES: C[C@H](NC(=O)C(=O)Nc1ccccc1Cl)C(=O)N[C@@H](CC(=O)O)C(=O)COP(=O)(c1ccccc1)c1ccccc1 [Example 57]
- pKi (MCH-2): 7.89
- MCH-2 k3/Ki (MCH-2): 373,000 moles^−1 seconds^−1
- CPP32 k3/Ki (CPP32): 564,000 moles^−1 seconds^−1
- pKi (CPP32): 7.36
- pKi (MCH-5): 8.68
- MCH-5 k3/Ki (MCH-5): 2,330,000 moles^−1 seconds^−1
- pKi (mICE): 8.28
- mICE k3/Ki (mICE): 1,980,000 moles^−1 seconds^−1

SMILES: CC(C)[C@H](NC(=O)C(=O)Nc1cccc2ccccc12)C(=O)N[C@@H](CC(=O)O)C(=O)COc1c(F)cccc1F [Example 5]
- pKi (MCH-2): 7.60
- pKi (CPP32): 7.39
- pKi (MCH-5): 8.30
- pKi (mICE): 8.13

SMILES: C[C@H](NC(=O)C(=O)Nc1ccccc1Cl)C(=O)N[C@@H](CC(=O)O)C(=O)COC(=O)c1c(Cl)cccc1Cl [Example 42]
- pKi (MCH-2): 8.15
- MCH-2 k3/Ki (MCH-2): 745,000 moles^−1 seconds^−1
- CPP32 k3/Ki (CPP32): 842,000 moles^−1 seconds^−1
- pKi (CPP32): 7.68
- pKi (MCH-5): 8.34
- MCH-5 k3/Ki (MCH-5): 1,630,000 moles^−1 seconds^−1
- pKi (mICE): 8.15
- mICE k3/Ki (mICE): 1,940,000 moles^−1 seconds^−1

SMILES: C[C@H](NC(=O)C(=O)Nc1ccccc1C(C)(C)C)C(=O)N[C@@H](CC(=O)O)C(=O)COC(=O)c1c(Cl)cccc1Cl [Example 37]
- pKi (MCH-2): 7.89
- MCH-2 k3/Ki (MCH-2): 191,000 moles^−1 seconds^−1
- CPP32 k3/Ki (CPP32): 142,000 moles^−1 seconds^−1
- pKi (CPP32): 7.11
- pKi (MCH-5): 7.08
- MCH-5 k3/Ki (MCH-5): 39,100 moles^−1 seconds^−1
- pKi (mICE): 6.33
- mICE k3/Ki (mICE): 43,300 moles^−1 seconds^−1

SMILES: C[C@H](NC(=O)C(=O)NCc1ccccc1)C(=O)N[C@@H](CC(=O)O)C(=O)COC(=O)c1c(Cl)cccc1Cl [Example 52]
- pKi (MCH-2): 7.70
- MCH-2 k3/Ki (MCH-2): 244,000 moles^−1 seconds^−1
- CPP32 k3/Ki (CPP32): 600,000 moles^−1 seconds^−1
- pKi (CPP32): 7.54
- pKi (MCH-5): 7.21
- MCH-5 k3/Ki (MCH-5): 203,000 moles^−1 seconds^−1
- pKi (mICE): 6.47
- mICE k3/Ki (mICE): 59,100 moles^−1 seconds^−1

SMILES: C[C@H](NC(=O)C(=O)NCc1cccc2ccccc12)C(=O)N[C@@H](CC(=O)O)C(=O)COP(=O)(c1ccccc1)c1ccccc1 [Example 35]
- pKi (MCH-2): 7.96
- MCH-2 k3/Ki (MCH-2): 186,000 moles^−1 seconds^−1
- CPP32 k3/Ki (CPP32): 245,000 moles^−1 seconds^−1
- pKi (CPP32): 7.66
- pKi (MCH-5): 7.64
- MCH-5 k3/Ki (MCH-5): 82,700 moles^−1 seconds^−1
- pKi (mICE): 7.46
- mICE k3/Ki (mICE): 191,000 moles^−1 seconds^−1

SMILES: CC(C)[C@H](NC(=O)C(=O)Nc1ccccc1)C(=O)N[C@@H](CC(=O)O)C(=O)COc1c(F)c(F)cc(F)c1F [Example 82]
- pKi (MCH-2): 7.00
- MCH-2 k3/Ki (MCH-2): 25,500 moles^−1 seconds^−1
- CPP32 k3/Ki (CPP32): 36,000 moles^−1 seconds^−1
- pKi (CPP32): 6.41
- pKi (MCH-5): 8.30
- MCH-5 k3/Ki (MCH-5): 598,000 moles^−1 seconds^−1
- pKi (mICE): 8.15
- mICE k3/Ki (mICE): 1,490,000 moles^−1 seconds^−1

SMILES: CC(C)[C@H](NC(=O)C(=O)Nc1cccc2ccccc12)C(=O)N[C@@H](CC(=O)O)C(=O)COc1ccc(O)cc1 [Example 15]
- pKi (MCH-2): 7.43
- MCH-2 k3/Ki (MCH-2): 69,100 moles^−1 seconds^−1
- CPP32 k3/Ki (CPP32): 286,000 moles^−1 seconds^−1
- pKi (CPP32): 7.38
- pKi (MCH-5): 8.24
- MCH-5 k3/Ki (MCH-5): 625,000 moles^−1 seconds^−1
- pKi (mICE): 8.21
- mICE k3/Ki (mICE): 1,840,000 moles^−1 seconds^−1

SMILES: CC(C)[C@H](NC(=O)C(=O)Nc1ccccc1Br)C(=O)N[C@@H](CC(=O)O)C(=O)COc1c(F)c(F)cc(F)c1F [Example 106]
- pKi (MCH-2): 7.72
- MCH-2 k3/Ki (MCH-2): 230,000 moles^−1 seconds^−1
- CPP32 k3/Ki (CPP32): 276,000 moles^−1 seconds^−1
- pKi (CPP32): 7.20
- pKi (MCH-5): 8.47
- MCH-5 k3/Ki (MCH-5): 1,305,000 moles^−1 seconds^−1
- pKi (mICE): 8.05
- mICE k3/Ki (mICE): 1,080,000 moles^−1 seconds^−1

SMILES: CC(C)[C@H](NC(=O)C(=O)Nc1c(F)cccc1F)C(=O)N[C@@H](CC(=O)O)C(=O)COc1c(F)c(F)cc(F)c1F [Example 108]
- pKi (MCH-2): 8.10
- MCH-2 k3/Ki (MCH-2): 1,083,000 moles^−1 seconds^−1
- CPP32 k3/Ki (CPP32): 62,900 moles^−1 seconds^−1
- pKi (CPP32): 6.99
- pKi (MCH-5): 8.72
- MCH-5 k3/Ki (MCH-5): 1,830,000 moles^−1 seconds^−1
- pKi (mICE): 8.32
- mICE k3/Ki (mICE): 2,680,000 moles^−1 seconds^−1

SMILES: CC(C)[C@H](NC(=O)C(=O)Nc1cccc2ccccc12)C(=O)N[C@@H](CC(=O)O)C(=O)COP(C)(=O)c1ccccc1 (some centres unmarked) [Example 10]
- pKi (MCH-2): 7.96
- pKi (CPP32): 7.72
- pKi (MCH-5): 8.27
- pKi (mICE): 8.19

SMILES: CC(C)[C@H](NC(=O)C(=O)Nc1ccccc1C(C)(C)C)C(=O)N[C@@H](CC(=O)O)C(=O)COc1c(F)c(F)cc(F)c1F [Example 93]
- pKi (MCH-2): 7.39
- MCH-2 k3/Ki (MCH-2): 112,000 moles^−1 seconds^−1
- CPP32 k3/Ki (CPP32): 27,700 moles^−1 seconds^−1
- pKi (CPP32): 6.45
- pKi (MCH-5): 8.52
- MCH-5 k3/Ki (MCH-5): 1,165,000 moles^−1 seconds^−1
- pKi (mICE): 8.22
- mICE k3/Ki (mICE): 2,052,000 moles^−1 seconds^−1

SMILES: C[C@H](NC(=O)C(=O)Nc1ccc(F)cc1)C(=O)N[C@@H](CC(=O)O)C(=O)COP(=O)(c1ccccc1)c1ccccc1 [Example 43]
- pKi (MCH-2): 8.05
- MCH-2 k3/Ki (MCH-2): 424,000 moles^−1 seconds^−1
- CPP32 k3/Ki (CPP32): 268,000 moles^−1 seconds^−1
- pKi (CPP32): 7.28
- pKi (MCH-5): 8.44
- MCH-5 k3/Ki (MCH-5): 2,300,000 moles^−1 seconds^−1
- pKi (mICE): 7.89
- mICE k3/Ki (mICE): 956,000 moles^−1 seconds^−1

SMILES: C/C=C/OC(=O)Oc1ccc(OCC(=O)[C@H](CC(=O)O)NC(=O)[C@@H](NC(=O)C(=O)Nc2cccc3ccccc23)C(C)C)cc1 [Example 16]
- pKi (MCH-2): 7.37
- pKi (mICE): 8.02

SMILES: Cc1cc(OCC(=O)[C@H](CC(=O)O)NC(=O)[C@@H](NC(=O)C(=O)Nc2cccc3ccccc23)C(C)C)cc(=O)o1 [Example 8]
- pKi (MCH-2): 6.60
- pKi (CPP32): 7.59
- pKi (MCH-5): 7.54
